According to patent US10653806B2, “Homomultivalent and heteromultivalent inhibitors of prostate specific membrane antigen (PSMA) and uses thereof” (THE JOHNS HOPKINS UNIVERSITY, priority 2011, dated 2020):

Experiments:
[1] = tested on: PSMA+PIP and PSMA-flu tumors in a male SCID mouse; conditions: 44.4 MBq (1.2 mCi) intravenously, imaged repeatedly over an eight day period
PSMA = target: T1, PSMA (Homo sapiens, UniProt Q04609); assay: fluorescence-based PSMA inhibition assay (NAAG hydrolysis, LNCaP cell lysates, Amplex Red); assay type: biochemical; conditions: for Ki: PSMA inhibitory activity, Cheng-Prusoff conversion
T1 construct: endogenous in cells; host or cells: LNCaP cell lysate
T1 sequence (Q04609 whole entry): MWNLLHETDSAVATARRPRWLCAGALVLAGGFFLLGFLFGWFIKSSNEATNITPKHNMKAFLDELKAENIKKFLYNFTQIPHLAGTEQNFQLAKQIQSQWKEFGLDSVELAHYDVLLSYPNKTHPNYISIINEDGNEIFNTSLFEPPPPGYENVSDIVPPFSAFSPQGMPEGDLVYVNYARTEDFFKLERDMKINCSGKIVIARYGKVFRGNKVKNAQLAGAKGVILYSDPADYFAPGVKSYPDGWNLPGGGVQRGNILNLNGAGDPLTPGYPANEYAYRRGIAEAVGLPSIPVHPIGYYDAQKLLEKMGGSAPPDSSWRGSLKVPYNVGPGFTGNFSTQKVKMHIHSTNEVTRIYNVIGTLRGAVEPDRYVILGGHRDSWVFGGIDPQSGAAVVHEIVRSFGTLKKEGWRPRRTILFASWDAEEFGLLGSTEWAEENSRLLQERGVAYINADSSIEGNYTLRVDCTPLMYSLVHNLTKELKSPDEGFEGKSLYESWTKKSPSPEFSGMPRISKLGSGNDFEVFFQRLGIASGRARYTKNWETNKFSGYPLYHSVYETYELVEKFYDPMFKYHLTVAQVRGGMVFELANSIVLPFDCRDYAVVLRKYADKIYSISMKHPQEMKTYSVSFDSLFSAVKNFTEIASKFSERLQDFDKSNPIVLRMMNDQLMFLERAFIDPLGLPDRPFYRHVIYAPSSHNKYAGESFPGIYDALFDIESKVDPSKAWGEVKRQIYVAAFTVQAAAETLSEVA
Method: PSMA Inhibition. […] Briefly, lysates of LNCaP cell extracts (25 μL) were incubated with the inhibitor (12.5 μL) in the presence of 4 μM NAAG (12.5 μL) for 120 min. The amount of glutamate released upon hydrolysis of NAAG was measured by incubating with a working solution (50 μL) of the Amplex Red Glutamic Acid Kit (Life Technologies, Grand Island, N.Y.) for 60 min. Fluorescence was measured with a VICTOR3V multilabel plate reader (Perkin Elmer Inc., Waltham, Mass.) with excitation at 530 nm and emission at 560 nm. […] Assays were performed in triplicate. Enzyme inhibitory constants (Ki values) were generated using the Cheng-Prusoff conversion. Data analysis was performed using GraphPad Prism version 4.00 for Windows (GraphPad Software, San Diego, Calif.).
PSMA inhibition constant (Ki) values for 1-3 were determined using a fluorescence-based PSMA inhibition assay.

Compound | radiotracer uptake on SPECT-CT [1] | Ki (PSMA) [nM] | increase in binding affinity (Ki) compared to monovalent 1 (PSMA; relative to compound 1) [fold]
O=C(O)CC[C@H](NC(=O)N[C@@H](CCCCNC(=O)CCCCCCC(=O)NC(CCCCn1cc(C(=O)NCCCCC(NC(=O)c2cn(CCCCC(NC(=O)CCCCCCC(=O)NCCCC[C@H](NC(=O)N[C@@H](CCC(=O)O)C(=O)O)C(=O)O)C(=O)O)nn2)C(=O)NC(CCCCNC(=O)CN2CCN(CC(=O)O)CCN(CC(=O)O)CCN(CC(=O)O)CC2)C(=O)O)nn1)C(=O)O)C(=O)O)C(=O)O.[111In+3] (stereo partly shown) [[^111In]3] | Intense radiotracer uptake was seen only in the PSMA+PIP tumors and in the kidneys | – | –
O=C(O)CCC(NC(=O)N[C@@H](CCCCNC(=O)CCCCCCC(=O)NC(CCCCc1[nH]nnc1C(=O)NC(CCCCNC(=O)c1cn(CCCCC(NC(=O)CCCCCCC(=O)NCCCC[C@H](NC(=O)NC(CCC(=O)O)C(=O)O)C(=O)O)C(=O)O)nn1)C(=O)NC(CCCCNC(=O)CN1CCN(CC(=O)O)CCN(CC(=O)O)CCN(CC(=O)O)CC1)C(=O)O)C(=O)O)C(=O)O)C(=O)O (stereo partly drawn) [Compound 3, (7S)-26-(4-((1-((1-carboxy-5-(2-(4,7,10-tris(carboxymethyl)-1,4,7,10-tetraazacyclododecan-1-yl)acetamido)pentyl)amino)-1-oxo-6-(1-((7 S)-1,3,7,22-tetracarboxy-5,13,20-trioxo-4,6,12,21-tetraazahexacosan-26-yl)-1H-1,2,3-triazole-4-carboxamido)hexan-2-yl)carbamoyl)-1H-1,2,3-triazol-5-yl)-5,13,20-trioxo-4,6,12,21-tetraazahexacosane-1,3,7,22-tetracarboxylic acid] | – | 0.08 | –
NCCCCC(NC(=O)C(CCCCNC(=O)c1cn(CCCCC(NC(=O)CCCCCCC(=O)NCCCC[C@H](NC(=O)NC(CCC(=O)O)C(=O)O)C(=O)O)C(=O)O)nn1)NC(=O)c1nn[nH]c1CCCCC(NC(=O)CCCCCCC(=O)NCCCC[C@H](NC(=O)NC(CCC(=O)O)C(=O)O)C(=O)O)C(=O)O)C(=O)O (stereo partly drawn) [Compound 2, (7S)-26-(4-((1-((5-amino-1-carboxypenty 1)amino)-1-oxo-6-(1-((7S)-1,3,7,22-tetracarboxy-5,13,20-trioxo-4,6,12,21-tetraazahexacosan-26-yl) 1H-1,2,3-triazole-4-carboxamido)hexan-2-yl)carbamoyl)-1H-1,2,3-triazol-5-yl)-5,13,20-trioxo-4,6,12,21-tetraazahexacosane-1,3,7,22-tetracarboxylic acid] | – | 0.1 | 5
